According to US8163909B2, “Substituted hydroxyethyl amine compounds as beta-secretase modulators and methods of use” (Amgen Inc., priority 2007, dated 2012):
pIC50: −log10 of the molar value. Where two headings read alike, the source gives them in different places.

Columns and labels:
[1] = target: Beta Secretase enzyme (BACE) (Homo sapiens, UniProt P56817); test: In vitro enzymatic BACE FRET (fluorescence resonance energy transfer) assay; format: biochemical; settings: for IC50: IC50's in uM;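 for all read-outs here: fluorescence read after 1 h with 50 nM quenched peptide substrate spanning the BACE cleavage site, in pH 4.2 acetate buffer containing 10% DMSO and nonionic detergent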
[2] = system: Aβ40 in conditioned medium of cells stably expressing Amyloid Precursor Protein (APP); test: In vitro BACE cell-based assay (Aβ40 in conditioned medium, sandwich ELISA); settings: for IC50: IC50's in uM;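 for all read-outs here: compounds added as a dilution series, secreted peptide quantified by europium time-resolved fluorescence readout, potency fitted from percent of control versus compound concentration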
[3] = BACE enzyme FRET assay, read-out: BACE1 FRET assay (IC50)
[4] = HEK cells, cell-based assay, read-out: HEK cell assay (IC50)
[5] = BACE enzyme assay, read-out: BACE1 FRET assay (IC50)
[6] = Homo sapiens, HEK293, HEK cells, cell-based assay, read-out: HEK cell assay (IC50)
[7] = Table 1, read-out: BACE1 FRET assay
[8] = Homo sapiens, HEK293, Table 1, HEK cells, read-out: HEK cell assay
[9] = BACE enzyme assay, read-out: BACE1 FRET assay
[10] = Homo sapiens, HEK293, HEK cell-based assay, read-out: HEK cell assay

Beta Secretase enzyme (BACE), sequence (P56817 46-501): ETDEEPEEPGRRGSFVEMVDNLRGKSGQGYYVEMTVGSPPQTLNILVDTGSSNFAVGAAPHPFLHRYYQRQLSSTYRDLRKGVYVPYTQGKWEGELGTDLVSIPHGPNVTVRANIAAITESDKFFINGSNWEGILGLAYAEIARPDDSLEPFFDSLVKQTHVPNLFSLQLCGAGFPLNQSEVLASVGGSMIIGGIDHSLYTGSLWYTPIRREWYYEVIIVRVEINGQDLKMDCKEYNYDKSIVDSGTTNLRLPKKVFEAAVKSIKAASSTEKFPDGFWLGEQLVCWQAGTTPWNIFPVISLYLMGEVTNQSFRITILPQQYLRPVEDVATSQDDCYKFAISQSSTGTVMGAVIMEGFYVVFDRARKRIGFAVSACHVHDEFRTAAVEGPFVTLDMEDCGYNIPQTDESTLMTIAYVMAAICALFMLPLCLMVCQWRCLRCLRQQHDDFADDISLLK

Compound “N-((1S,2R)-1-(1,3-benzodioxol-5-ylmethyl)-3-(((1r,3R,4′S)-6′-(2,2-dimethylpropyl)-3-hydroxy-3′,4′-dihydrospiro[cyclobutane-1,2′-pyrano[2,3-c]pyridin]-4′-yl)amino)-2-hydroxypropyl)acetamide N-((1S,2R)-1-(1,3-benzodioxol-5-ylmethyl)-3-(((1s,3S,4′S)-6′-(2,2-dimethylpropyl)-3-hydroxy-3′,4′-dihydrospiro[cyclobutane-1,2′-pyrano[2,3-c]pyridin]-4′-yl)amino)-2-hydroxypropyl)acetamide [compound 264]” has a pIC50 [1, 3] of 7.37 and a pIC50 [2, 4] of 7.16.
Work on CC(C)(C)Cc1cnc2c(c1)[C@@H](NC[C@@H](O)[C@H](Cc1cc(F)cc(F)c1)NC(=O)COCc1cncs1)CC1(CCC1)O2 [compound 94] yielded a pIC50 [1, 5] of 8.52 and a pIC50 [2, 6] of 7.77.
COCC(=O)N[C@@H](Cc1ccc(F)c(OC(F)(F)F)c1)[C@H](O)CN[C@H]1CC2(CCC2)Oc2ncc(CC(C)(C)C)cc21 [compound 81] was tested, and the pIC50 [1, 5] was 8.60 and the pIC50 [2, 6] was 7.85.
In the case of CC(=O)N[C@@H](Cc1cccc(F)c1)[C@H](O)CN[C@H]1CC2(CCC2)Oc2ncc(C[C@H](C)C(F)(F)F)cc21 [compound 314], the pIC50 [1, 3] was 8.38 and the pIC50 [2, 6] was 7.95.
For CO[C@H](C)C(=O)N[C@@H](Cc1cccc(F)c1)[C@H](O)CN[C@H]1CC2(CCC2)Oc2ncc(CC(C)(C)F)cc21 [compound 301], the pIC50 [1, 3] was 8.11 and the pIC50 [2, 6] was 8.16.
Compound CC(=O)N[C@@H](Cc1ccc2c(c1)OCO2)[C@H](O)CN[C@H]1CC2(CCC2)Oc2ncc(C[C@@H](C)C(F)(F)F)cc21 [compound 321] has a pIC50 [1, 7] of 6.87 and a pIC50 [2, 8] of 7.19.
Compound COCC(=O)N[C@@H](Cc1ccc2c(c1)OCO2)[C@H](O)CN[C@H]1CC2(CCC2)Oc2c1cc(CC(C)(C)C)nc2N [compound 129] has a pIC50 [1, 5] of 6.92 and a pIC50 [2, 6] of 7.51.
Compound COCC(=O)N[C@@H](Cc1cccc(F)c1)[C@H](O)CN[C@H]1CC2(CCC2)Oc2c1cc(CC(C)(C)C)nc2OCC(F)(F)F [compound 140, N-((1S,2R)-3-(((4′S)-6′-(2,2-dimethylpropyl)-8′-((2,2,2-trifluoroethyl)oxy)-3′,4′-dihydrospiro[cyclobutane-1,2′-pyrano[2,3-c]pyridin]-4′-yl)amino)-1-((3-fluorophenyl)methyl)-2-hydroxypropyl)-2-(methyloxy)acetamide] has a pIC50 [1, 5] of 8.11 and a pIC50 [2, 6] of 6.94.
Compound COCC(=O)N[C@@H](Cc1cc(F)cc(F)c1)[C@H](O)CN[C@H]1CC2(CCC2)Oc2ncc(CC(F)(F)F)cc21 [compound 348] has a pIC50 [1, 7] of 8.16 and a pIC50 [2, 8] of 7.74.
COCC(=O)NC(Cc1ccc(F)cc1)C(O)CNC1CC2(CC(O)C2)Oc2ncc(CC(C)C)cc21 [compound 249, N-((1S,2R)-1-((4-fluorophenyl)methyl)-2-hydroxy-3-(((1s,3S,4′S)-3-hydroxy-6′-(2-methylpropyl)-3′,4′-dihydrospiro[cyclobutane-1,2′-pyrano[2,3-b]pyridin]-4′-yl)amino)propyl)-2-(methyloxy)acetamide] was tested, and the pIC50 [1, 3] was 8.19 and the pIC50 [2, 6] was 7.95.
CCNc1cc(Br)cc2c1OC1(CCC1)C[C@@H]2NC[C@@H](O)[C@H](Cc1cccc(F)c1)NC(=O)COC [compound 270] gave a pIC50 [1, 3] of 6.35 and a pIC50 [2, 6] of 6.80.
COCC(=O)N[C@@H](Cc1cccc(C(N)=O)c1)[C@H](O)CN[C@H]1CC2(CCC2)Oc2ncc(CC(C)(C)F)cc21 [compound 863] gave an IC50 [1, 9] of 0.013 µM and an IC50 ([2]; Homo sapiens, HEK293, cell-based assay, HEK cells, read-out: HEK cell assay) of 0.033 µM.
In the case of COCC(=O)N[C@@H](Cc1cccc(F)c1)[C@H](O)CN[C@H]1CC2(CCC2)Oc2ncc(C[C@H](C)C(F)(F)F)cc21 [compound 325], the pIC50 [1, 7] was 8.43 and the pIC50 [2, 8] was 7.86.
Work on CO[C@H](C)C(=O)N[C@@H](Cc1ccc2c(c1)OCO2)[C@H](O)CN[C@H]1CC2(CCC2)Oc2c1cc(CC(C)(C)C)nc2Cl [compound 131] yielded a pIC50 [1, 5] of 7.57 and a pIC50 [2, 6] of 6.42.
With COCC(=O)N[C@@H](Cc1ccc2c(c1)OCO2)[C@H](O)CN[C@H]1CC2(CCC2)Oc2ncc(CC(C)(C)C(F)(F)F)cc21 [compound 362] the pIC50 [1, 7] was 7.22 and the pIC50 [2, 8] was 6.91.
In the case of C=Cc1cccc(C[C@H](NC(=O)COC)[C@H](O)CN[C@H]2CC3(CCC3)Oc3ncc(CC(C)C)cc32)c1 [compound 832], the IC50 [1, 9] was 0.007 µM and the IC50 [2, 10] was 0.038 µM.
CO[C@H](C)C(=O)N[C@@H](Cc1cc(F)cc(F)c1)[C@H](O)CN[C@H]1CC2(CCC2)Oc2ncc(CC(F)(F)F)cc21 [compound 346] showed a pIC50 [1, 7] of 7.99 and a pIC50 [2, 8] of 7.33.
With COCC(=O)N[C@@H](Cc1cccc(C#N)c1)[C@H](O)CN[C@H]1CC2(CCC2)Oc2ncc(CC(F)(F)F)cc21 [compound 347] the pIC50 [1, 7] was 7.98 and the pIC50 [2, 8] was 7.72.
In the case of CC(=O)N[C@@H](Cc1ccc(Cl)c(F)c1)[C@H](O)CN[C@H]1CC2(CCC2)Oc2ncc(CC(C)(C)C(F)F)cc21 [compound 225], the pIC50 [1, 3] was 8.04 and the pIC50 [2, 6] was 7.62.
CO[C@H](C)C(=O)N[C@@H](Cc1cc(F)cc(Cl)c1)[C@H](O)CN[C@H]1CC2(CCC2)Oc2ccc(CC(C)C)cc21 [compound 805] showed an IC50 [1, 9] of 0.003 µM and an IC50 [2, 10] of 0.07 µM.
“N-((1S,2R)-1-(4-thiazolylmethyl)-3-(((5′S)-3′-(2,2-dimethylpropyl)-5′,8′-dihydro-6′H-spiro[cyclobutane-1,7′-quinolin]-5′-yl)amino)-2-hydroxypropyl)-2-(methyloxy)acetamide [compound 176]” showed a pIC50 [1, 5] of 7.98 and a pIC50 [2, 4] of 7.77.
CCOCC(=O)N[C@@H](Cc1ccc(F)cc1)[C@H](O)CN[C@H]1CC2(CCC2)Oc2ncc(CC(C)(C)C)cc21 [compound 655] showed a pIC50 ([1]; read-out: BACE1 FRET assay (IC50)) of 7.89 and a pIC50 ([2]; Homo sapiens, HEK293, HEK cells, read-out: HEK cell assay (IC50)) of 7.37.
COCC(=O)N[C@@H](Cc1ccc(F)cc1)[C@H](O)CN[C@H]1CC2(CCC2)Oc2ncc([C@@H](O)C(C)(C)C)cc21 [compound 189] gave a pIC50 [1, 3] of 6.06 and a pIC50 [2, 6] of 6.00.
With CC(=O)N[C@@H](Cc1ccccc1)[C@H](O)CN[C@H]1CC2(CCC2)Oc2ncc(C[C@H](C)C(F)(F)F)cc21 [compound 316] the pIC50 [1, 7] was 7.87 and the pIC50 [2, 8] was 7.30.
COCC(=O)N[C@@H](Cc1ccc(Cl)cc1)[C@H](O)CN[C@H]1CC2(CCC2)Oc2ncc(CC(C)(C)C)cc21 [compound 212] was tested, and the pIC50 [1, 3] was 8.67 and the pIC50 [2, 6] was 7.50.
For CC(=O)NC(Cc1ccc(F)cc1)C(O)CNC1CC2(CC(CO)C2)Oc2ncc(CC(C)(C)C)cc21 [compound 259, N-((1S,2R)-3-(((1s,3R,4′S)-6′-(2,2-dimethylpropyl)-3-(hydroxymethyl)-3′,4′-dihydrospiro[cyclobutane-1,2′-pyrano[2,3-b]pyridin]-4′-yl)amino)-1-((4-fluorophenyl)methyl)-2-hydroxypropyl)acetamide], the pIC50 [1, 3] was 4.80 and the pIC50 [2, 6] was 5.48.
Work on CO[C@H](C)C(=O)N[C@@H](Cc1ccc2c(c1)OCO2)[C@H](O)CN[C@H]1CC2(CCC2)Oc2ncc([C@H](F)C(C)(C)C)cc21 [compound 330] yielded a pIC50 [1, 7] of 7.66 and a pIC50 [2, 8] of 7.36.
COCCNc1nc(CC(C)(C)C)cc2c1OC1(CCC1)C[C@@H]2NC[C@@H](O)[C@H](Cc1ccc(F)cc1)NC(=O)COC [compound 150] showed a pIC50 [1, 5] of 7.32 and a pIC50 [2, 6] of 7.65.
In the case of CC(C)(C)Cc1cnc2c(c1)[C@@H](NC[C@@H](O)[C@H](Cc1cccc(C#N)c1)NC(=O)[C@H](O)C(F)(F)F)CC1(CCC1)O2 [compound 61], the pIC50 [1, 5] was 8.49 and the pIC50 [2, 6] was 8.02.
With CO[C@H](C)C(=O)N[C@@H](Cc1ccc2c(c1)OCO2)[C@H](O)CN[C@H]1CC2(CCC2)Oc2ncc(CCC(F)(F)F)cc21 [compound 194] the pIC50 [1, 3] was 5.97 and the pIC50 [2, 6] was 5.82.
In the case of CC(C)(C)Cc1cnc2c(c1)[C@@H](NC[C@@H](O)[C@H](Cc1cc(F)cc(F)c1)NC(=O)C(Cl)Cl)CC1(CCC1)O2 [compound 95], the pIC50 [1, 5] was 9.37 and the pIC50 [2, 6] was 7.78.
CCC(=O)N[C@@H](Cc1ccc2c(c1)OCO2)[C@H](O)CN[C@H]1CC2(CCC2)Oc2ncc(CC(C)(C)C)cc21 [compound 828] was tested, and the IC50 [1, 9] was 0.012 µM and the IC50 [2, 10] was 0.014 µM.
In the case of COCC(=O)N[C@@H](Cc1cccc(F)c1)[C@H](O)CN[C@H]1CC2(CCC2)Oc2ncc(CC(F)(F)F)cc21 [compound 350], the pIC50 [1, 7] was 8.04 and the pIC50 [2, 8] was 7.61.
For CC(=O)N[C@@H](Cc1cc(F)cc(F)c1)[C@H](O)CN[C@H]1CC2(CCC2)Oc2c(F)cc(CC(C)(C)C)cc21 [compound 224], the pIC50 [1, 3] was 8.33 and the pIC50 [2, 6] was 7.71.
For COCC(=O)N[C@@H](Cc1cccc(F)c1)[C@H](O)CN[C@H]1CC2(CCC2)Oc2ncc(CC3(C(F)(F)F)CC3)cc21 [compound 327], the pIC50 [1, 7] was 8.01 and the pIC50 [2, 8] was 7.22.
CNc1nc(CC(C)(C)C)cc2c1OC1(CCC1)C[C@@H]2NC[C@@H](O)[C@H](Cc1ccccc1)NC(=O)COC [compound 112] gave a pIC50 [1, 5] of 7.52 and a pIC50 [2, 6] of 8.05.
COCC(=O)N[C@@H](Cc1ccccc1)[C@H](O)CN[C@H]1CC2(CCC2)Oc2ncc(CC(C)C)cc21 [compound 328] showed a pIC50 [1, 7] of 8.04 and a pIC50 [2, 8] of 7.64.
For COCC(=O)N[C@@H](Cc1cccc(F)c1)[C@H](O)CN[C@H]1CC2(CCC2)Oc2c(-c3ccncc3)cc(CC(C)(C)F)cc21 [compound 530], the pIC50 [1, 9] was 7.82 and the pIC50 ([2]; Homo sapiens, HEK293, HEK cells, read-out: HEK cell assay) was 8.00.
COCC(=O)N[C@@H](Cc1ccc(F)cc1)[C@H](O)CNC1CC2(CC(F)(F)C2)Oc2ncc(CC(C)(C)C)cc21 (stereo partly shown) [compound 53] showed a pIC50 [1, 5] of 7.96 and a pIC50 [2, 6] of 7.19.
For CO[C@H](C)C(=O)N[C@@H](Cc1ccc(Cl)c(F)c1)[C@H](O)CN[C@H]1CC2(CCC2)Oc2ncc(CC(C)(C)C(F)F)cc21 [compound 227], the pIC50 [1, 3] was 7.82 and the pIC50 [2, 6] was 7.50.
CC(=O)N[C@@H](Cc1ccc(F)cc1)[C@H](O)CN[C@H]1C[C@]2(CC[C@H]2O)Oc2ncc(CC(C)(C)C)cc21 [compound 118] was tested, and the pIC50 [1, 5] was 8.04 and the pIC50 [2, 6] was 7.55.
